{
  "source": "paper PMC10349806",
  "about": "(Nature Communications, 2023)",
  "key": {"[1]": {"tested_on": "PfCRT variant E121A", "assay": "CQ uptake assay, oocytes expressing E121A", "format": "cell-based, Plasmodium falciparum", "method": "(§1) Site-directed mutagenesis of PfCRT^Dd2 was performed as described using the megaprimer method with overlap extension[21],[54]. The primer pairs used are listed in Supplementary Table 6. Please note that a codon-optimized and oocyte-adapted version of PfCRT^Dd2 was used[22] (Supplementary Fig. 16). The resulting DNA fragment was cloned into the SP64T expression vector and verified by sequencing.\n(§2) Oocytes were obtained as described previously. Briefly, adult (>2 years old) female X. laevis frogs (NASCO) were anesthetized in a cooled solution of ethyl 3-amino benzoate methanesulfonate (0.1%, w/v), followed by a surgical removal of parts of the ovary. The ovary lobes were carefully dissected and small pieces of oocytes were incubated in Ca^2+-free ND96 buffer (96 mM NaCl, 2 mM KCl, 1 mM MgCl2 buffered with 5 mM HEPES/NaOH, pH 7.5) supplemented with collagenase D (0.1%, w/v; Roche), BSA (0.5%, w/v), and 9 mm Na2HPO4 at 18 °C for 14-16 h while gentle shaking. After incubation, the oocytes were carefully washed several times with ND96 buffer (96 mM NaCl, 2 mM KCl, 1.8 mM CaCl2, 1 mM MgCl2 buffered with 5 mM HEPES/NaOH, pH 7.5) supplemented with 100 mg l^−1 gentamycin). Defolliculated and healthy-looking stage V-VI oocytes were manually selected for RNA microinjection. The RNA was generated as following: The codon-optimized sequences of PfCRT variants were cloned into the pSP64T expression vector. After vector linearization using the restriction endonucleases BamHI or SalI (New England Biolabs), transcription was performed using the in vitro SP6 mMessage mMachine Kit (Ambion)[34]. The obtained RNA was kept at −80 °C and diluted with nuclease-free water to a concentration of 0.6 μg μl^−1. Precision-bore glass capillary tubes (3.5-inch glass capillaries; Drummond Scientific Co.) were pulled on a vertical puller (P-87 Flaming/Brown micropipette puller, Sutter Instrument Co.), graduated, and placed on a microinjector (Nanoject II Auto-Nanoliter Injector, Drummond Scientific Co.). 50 nl of nuclease-free water alone (control oocytes) or 50 nl of 0.6 μg μl^−1 RNA were injected under stereomicroscopic control. Injected oocytes were incubated for 46–72 h at 18 °C with twice-daily buffer changes before usage in experiments.\n(§3) Drug uptake assays were performed as described previously[21],[22],[24],[34]. […] The direction of radio-labeled drug transport is here from the mostly acidic extracellular solution (pH 4.5 or 6.0, as indicated) into the oocyte cytosol (pH ∼ 7.2), which corresponds to the efflux of drug from the acidic digestive vacuole (pH 5.2) into the parasite cytoplasm (pH 7.2). The topology of PfCRT in the oolemma is such that both the N- and C-terminus face the extracellular milieu[3],[22]. In the parasite, the N- and C-terminus face the lumen of the digestive vacuole. CQ uptake kinetics were performed by incubating oocytes in ND96 buffer adjusted to a pH of 4.5, 5.0, 5.5, or 6.0 and supplemented with 50 nM [^3H]CQ and one of 7 different CQ concentrations (10 µM, 50 µM, 100 µM, 200 µM, 300 µM, 400 µM, 500 µM CQ). The reaction was stopped at the 60 min time point, which is in the linear uptake range[22],[34] (Supplementary Fig. 17). […] The radioactivity of each sample was measured using a liquid scintillation analyzer Tri-Carb 4910 TR (PerkinElmer). Oocytes that were injected with water instead of RNA were analyzed in parallel, representing the uptake of a drug by diffusion and/or endogenous permeation pathways. […]"}, "[2]": {"tested_on": "PfCRT variant F203A", "assay": "CQ uptake assay, oocytes expressing F203A", "format": "cell-based, Plasmodium falciparum", "method": "as §1, §2, §3"}, "[3]": {"target": "T1, PfCRT variant H273A (Plasmodium falciparum, UniProt Q9N623, A220S/H273A/I356T/K76T/M74I/N326S/N75E/Q271E/R371I)", "T1 sequence (Q9N623 1-424 M74I/N75E/K76T/A220S/Q271E/H273A/N326S/I356T/R371I)": "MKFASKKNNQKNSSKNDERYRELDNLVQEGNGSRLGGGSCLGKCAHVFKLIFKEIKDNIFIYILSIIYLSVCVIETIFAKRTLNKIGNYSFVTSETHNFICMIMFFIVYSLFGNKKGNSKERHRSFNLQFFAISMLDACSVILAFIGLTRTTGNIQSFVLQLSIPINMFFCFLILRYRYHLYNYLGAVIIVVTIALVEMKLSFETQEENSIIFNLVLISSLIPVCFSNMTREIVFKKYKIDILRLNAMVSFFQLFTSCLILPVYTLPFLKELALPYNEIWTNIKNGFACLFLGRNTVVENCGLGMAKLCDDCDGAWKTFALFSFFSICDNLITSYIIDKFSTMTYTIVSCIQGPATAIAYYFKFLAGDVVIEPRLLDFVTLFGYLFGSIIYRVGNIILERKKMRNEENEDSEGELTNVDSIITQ", "assay": "CQ uptake assay, oocytes expressing H273A", "format": "cell-based", "method": "as §1, §2, §3"}, "[4]": {"tested_on": "PfCRT variant D313A", "assay": "CQ uptake assay, oocytes expressing D313A", "format": "cell-based, Plasmodium falciparum", "method": "as §1, §2\n(§4) Drug uptake assays were performed as described previously[21],[22],[24],[34]. […] The direction of radio-labeled drug transport is here from the mostly acidic extracellular solution (pH 4.5 or 6.0, as indicated) into the oocyte cytosol (pH ∼ 7.2), which corresponds to the efflux of drug from the acidic digestive vacuole (pH 5.2) into the parasite cytoplasm (pH 7.2). The topology of PfCRT in the oolemma is such that both the N- and C-terminus face the extracellular milieu[3],[22]. In the parasite, the N- and C-terminus face the lumen of the digestive vacuole. CQ uptake kinetics were performed by incubating oocytes in ND96 buffer adjusted to a pH of 4.5, 5.0, 5.5, or 6.0 and supplemented with 50 nM [^3H]CQ and one of 7 different CQ concentrations (10 µM, 50 µM, 100 µM, 200 µM, 300 µM, 400 µM, 500 µM CQ). The reaction was stopped at the 60 min time point, which is in the linear uptake range[22],[34] (Supplementary Fig. 17). For determination of the amount of drug uptake for each oocyte, the reaction medium was removed and the oocytes were washed three times with 2 ml of ice-cold ND96 buffer. Each oocyte was individually transferred to a scintillation vial containing 5% sodium dodecyl sulfate (200 μl) for lysis. The radioactivity of each sample was measured using a liquid scintillation analyzer Tri-Carb 4910 TR (PerkinElmer). Oocytes that were injected with water instead of RNA were analyzed in parallel, representing the uptake of a drug by diffusion and/or endogenous permeation pathways. The resulting value represents the “background“ level of drug accumulation in oocytes (in-depth discussion in[22]). […]"}, "[5]": {"tested_on": "PfCRT variant E207D", "assay": "CQ uptake assay, oocytes expressing E207D", "format": "cell-based, Plasmodium falciparum", "method": "as §1, §2, §4"}, "[6]": {"tested_on": "PfCRT variant E207N", "assay": "CQ uptake assay, oocytes expressing E207N", "format": "cell-based, Plasmodium falciparum", "method": "as §1, §2, §4"}, "[7]": {"conditions": "E121A, 50 µM CQ, 1 h, mean ± SEM"}, "[8]": {"conditions": "pH 4.5, single replicates, Fig 1d left"}, "[9]": {"conditions": "pH 6.0, single replicates, Fig 1d left"}, "[10]": {"conditions": "F203A, 50 µM CQ, 1 h, mean ± SEM"}, "[11]": {"conditions": "H273A, 50 µM CQ, 1 h, mean ± SEM"}, "[12]": {"conditions": "D313A, 50 µM CQ, 1 h, mean ± SEM"}, "[13]": {"conditions": "E207D, 50 µM CQ, 1 h, mean ± SEM"}, "[14]": {"conditions": "pH 4.5, individual replicates, Fig 6b"}, "[15]": {"conditions": "pH 6.0, individual replicates, Fig 6b"}, "[16]": {"conditions": "ratio of activity pH 4.5 / pH 6.0"}, "[17]": {"conditions": "E207N, 50 µM CQ, 1 h, mean ± SEM"}},
  "note": "Where “and” joins values, the source holds several entries; their conditions need not be identical. Equal values may be shown once.",
  "data": [
    {"molecule": "CCN(CC)CCCC(C)Nc1ccnc2cc(Cl)ccc12", "note": "(stereo not drawn) [CQ, chloroquine]", "values": [
      {"measurement": "Activity at pH 4.5", "setting": "[1]; [7]", "result": "1.35 ± 0.09", "unit": "pmol h-1 oocyte-1"},
      {"measurement": "Activity at pH 6.0", "setting": "[1]; [7]", "result": "3.95 ± 0.82", "unit": "pmol h-1 oocyte-1"},
      {"measurement": "R-value", "setting": "[1]; E121A, CQ transport at pH 4.5 / pH 6.0", "result": "0.43 ± 0.06"},
      {"measurement": "E121A transport activity pH 4.5", "setting": "[1]; [8]", "result": "1.13 pmol oocyte-1 h-1 and 1.51 pmol oocyte-1 h-1 and 1.41 pmol oocyte-1 h-1"},
      {"measurement": "E121A transport activity pH 6.0", "setting": "[1]; [9]", "result": "5.74 pmol oocyte-1 h-1 and 2.27 pmol oocyte-1 h-1 and 3.83 pmol oocyte-1 h-1"},
      {"measurement": "Activity at pH 4.5", "setting": "[2]; [10]", "result": "0.93 ± 0.19", "unit": "pmol h-1 oocyte-1"},
      {"measurement": "Activity at pH 6.0", "setting": "[2]; [10]", "result": "2.55 ± 0.14", "unit": "pmol h-1 oocyte-1"},
      {"measurement": "R-value", "setting": "[2]; F203A, CQ transport at pH 4.5 / pH 6.0", "result": "0.36 ± 0.07"},
      {"measurement": "F203A transport activity pH 4.5", "setting": "[2]; [8]", "result": "0.48 pmol oocyte-1 h-1 and 1.22 pmol oocyte-1 h-1 and 1.1 pmol oocyte-1 h-1"},
      {"measurement": "F203A transport activity pH 6.0", "setting": "[2]; [9]", "result": "2.29 pmol oocyte-1 h-1 and 2.47 pmol oocyte-1 h-1 and 2.88 pmol oocyte-1 h-1"},
      {"measurement": "Activity at pH 4.5", "setting": "[3]; [11]", "result": "0.08 ± 0.04", "unit": "pmol h-1 oocyte-1"},
      {"measurement": "Activity at pH 6.0", "setting": "[3]; [11]", "result": "2.43 ± 0.40", "unit": "pmol h-1 oocyte-1"},
      {"measurement": "R-value", "setting": "[3]; H273A, CQ transport at pH 4.5 / pH 6.0", "result": "0.03 ± 0.02"},
      {"measurement": "H273A transport activity pH 4.5", "setting": "[3]; [8]", "result": "0.17 pmol oocyte-1 h-1 and 0.00 pmol oocyte-1 h-1 and 0.06 pmol oocyte-1 h-1"},
      {"measurement": "H273A transport activity pH 6.0", "setting": "[3]; [9]", "result": "2.70 pmol oocyte-1 h-1 and 3.11 pmol oocyte-1 h-1 and 1.48 pmol oocyte-1 h-1"},
      {"measurement": "Activity at pH 4.5", "setting": "[4]; [12]", "result": "1.49 ± 0.21", "unit": "pmol h-1 oocyte-1"},
      {"measurement": "Activity at pH 6.0", "setting": "[4]; [12]", "result": "4.55 ± 0.45", "unit": "pmol h-1 oocyte-1"},
      {"measurement": "R-value", "setting": "[4]; D313A, CQ transport at pH 4.5 / pH 6.0", "result": "0.33 ± 0.04"},
      {"measurement": "D313A transport activity pH 4.5", "setting": "[4]; [8]", "result": "2.00 pmol oocyte-1 h-1 and 1.13 pmol oocyte-1 h-1 and 1.34 pmol oocyte-1 h-1"},
      {"measurement": "D313A R-value", "setting": "[4]; pH 4.5 vs pH 6.0, Fig 1d left", "result": "0.38 and 0.23 and 0.39"},
      {"measurement": "D313A transport activity pH 6.0", "setting": "[4]; [9]", "result": "5.27 pmol oocyte-1 h-1 and 4.91 pmol oocyte-1 h-1 and 3.47 pmol oocyte-1 h-1"},
      {"measurement": "Activity at pH 4.5", "setting": "[5]; [13]", "result": "1.82 ± 0.06", "unit": "pmol h-1 oocyte-1"},
      {"measurement": "Activity at pH 6.0", "setting": "[5]; [13]", "result": "5.13 ± 0.37", "unit": "pmol h-1 oocyte-1"},
      {"measurement": "R-value", "setting": "[5]; E207D, CQ transport at pH 4.5 / pH 6.0", "result": "0.36 ± 0.05"},
      {"measurement": "E207D transport activity pH 4.5", "setting": "[5]; [14]", "result": "1.93 pmol oocyte-1 h-1 and 1.78 pmol oocyte-1 h-1 and 1.98 pmol oocyte-1 h-1 and 1.89 pmol oocyte-1 h-1 and 1.82 pmol oocyte-1 h-1 and 1.51 pmol oocyte-1 h-1"},
      {"measurement": "E207D transport activity pH 6.0", "setting": "[5]; [15]", "result": "4.59 pmol oocyte-1 h-1 and 4.25 pmol oocyte-1 h-1 and 6.63 pmol oocyte-1 h-1 and 6.08 pmol oocyte-1 h-1 and 4.42 pmol oocyte-1 h-1 and 4.78 pmol oocyte-1 h-1"},
      {"measurement": "E207D R-value", "setting": "[5]; [16]", "result": "0.42 and 0.30 and 0.31 and 0.41 and 0.32"},
      {"measurement": "Activity at pH 4.5", "setting": "[6]; [17]", "result": "2.54 ± 0.34", "unit": "pmol h-1 oocyte-1"},
      {"measurement": "Activity at pH 6.0", "setting": "[6]; [17]", "result": "2.81 ± 0.43", "unit": "pmol h-1 oocyte-1"},
      {"measurement": "R-value", "setting": "[6]; E207N, CQ transport at pH 4.5 / pH 6.0", "result": "0.93 ± 0.07"},
      {"measurement": "E207N transport activity pH 4.5", "setting": "[6]; [14]", "result": "3.35 pmol oocyte-1 h-1 and 2.62 pmol oocyte-1 h-1 and 1.45 pmol oocyte-1 h-1 and 2.72 pmol oocyte-1 h-1"},
      {"measurement": "E207N transport activity pH 6.0", "setting": "[6]; [15]", "result": "3.09 pmol oocyte-1 h-1 and 3.00 pmol oocyte-1 h-1 and 1.41 pmol oocyte-1 h-1 and 3.72 pmol oocyte-1 h-1"},
      {"measurement": "E207NR-value", "setting": "[6]; [16]", "result": "1.08 and 0.87 and 1.03 and 0.73"}
    ]}
  ]
}
